Converted amounts (≈) assume the structure as drawn.
Test system: C. difficile
Experiment: MIC against C. difficile, NCCLS agar dilution method for anaerobic bacteria
Type: cell-based, Clostridium difficile
Details: calcium 50 μg/ml
Procedure: Minimum inhibitory concentrations (MICs) for C. difficile were determined and antimicrobial agent stock solutions were prepared and stored according to the NCCLS reference agar dilution method for anaerobic bacteria (M11-A5, 2001). Two-fold serial antibiotic dilutions were prepared in Wilkens-Chalgren agar (WCA). Test organisms were selected from 48 hour growth on Braziers (C.C.E.Y.) agar, subcultured in Schaedler broth to a density equivalent to a McFarland 0.5 standard (1×10^8 CFU/ml), with a final inoculum onto WCA plates of approximately 10^5 CFU/spot. Bacteroides fragilis ATCC 25285 was included as a reference control strain and Metronidazole was used as a reference antibiotic for quality control. All manipulations were performed in duplicate in ambient atmosphere in pre-reduced media with only brief exposure to oxygen. Plates were incubated anaerobically for 48 hours at 37° C. with the MIC defined as the concentration of drug where a marked reduction occurred in the appearance of growth on the test plate compared to growth on the anaerobic control plate.
Culture media were supplemented with calcium ions (as calcium chloride) at 50 μg/ml except where higher concentrations are indicated.

| Structure (SMILES) | MIC C. difficile 19126 [µg/mL] | MIC C. difficile 37779 [µg/mL] |
| --- | --- | --- |
| CC[C@H](C)[C@@H]1NC(=O)[C@@H]2NC(=O)[C@H](CC(C)C)NC(=O)[C@H](NC(=O)[C@@H]3CSC[C@@H](NC(=O)[C@@H](N)C(C)C)C(=O)N[C@@H](CO)C(=O)NCC(=O)N[C@@H](Cc4c[nH]c5ccccc45)C(=O)N[C@@H](C(C)C)C(=O)N3)[C@H](C)SC[C@H](NC(=O)[C@H](CCC(=O)O)NC1=O)C(=O)NCC(=O)N[C@H]1C(=O)N[C@@H](CC(C)C)C(=O)N[C@@H](C(C)C)C(=O)N[C@@H](CS[C@H]2C)C(=O)N[C@@H](C)C(=O)N[C@H](C(=O)O)CS[C@H]1C [Compound VI, L-Val(0)deoxyactagardine B] | 8 (≈ 4.05 µM) | 8 (≈ 4.05 µM) |
| CC[C@H](C)[C@@H]1NC(=O)[C@@H]2NC(=O)[C@H](CC(C)C)NC(=O)[C@H](NC(=O)[C@@H]3CSC[C@@H](NC(=O)[C@@H](N)Cc4c[nH]c5ccccc45)C(=O)N[C@@H](CO)C(=O)NCC(=O)N[C@@H](Cc4c[nH]c5ccccc45)C(=O)N[C@@H](C(C)C)C(=O)N3)[C@H](C)SC[C@H](NC(=O)[C@H](CCC(=O)O)NC1=O)C(=O)NCC(=O)N[C@H]1C(=O)N[C@@H](CC(C)C)C(=O)N[C@@H](C(C)C)C(=O)N[C@@H](CS[C@H]2C)C(=O)N[C@@H](C)C(=O)N[C@H](C(=O)O)CS[C@H]1C [Compound IX, L-Tryp(0)deoxyactagardine B] | 2 (≈ 0.971 µM) | 1 (≈ 0.485 µM) |

From US8465947B2, “Lantibiotic biosynthetic gene clusters from A. garbadinensis and A. liguriae” (Novacta Biosystems Limited, priority 2006, dated 2013)
